{"source": "paper PMC11061149", "about": "“Protein mimetic 2D FAST rescues alpha synuclein aggregation mediated early and post disease Parkinson’s phenotypes” (Nature Communications, 2024)", "key": {"[1]": {"system": "UA196 worms (human αS and GFP in DA neurons)", "assay": "Confocal counting of healthy DA neurons in UA196 worms, early treatment (day two and four)", "format": "in vivo, C. elegans", "set-up": "key to Total neurons, Average: healthy DA neurons per replicate of 10 worms, max 60", "text": "The aggregation of αS is associated with the neurodegeneration of DA neurons, which is a pathological hallmark of PD. Next, we investigated the neuroprotective effect of NS163 on the intraneuronal αS aggregation-mediated degeneration of DA neurons in a well-established C. elegans PD model (UA196)[20],[72]–[75]. The UA196 worms express both human αS and GFP in DA neurons under the control of the dopamine promoter genotype (Pdat-1::GFP; Pdat-1::α-SYN). The expression and aggregation of αS in six DA neurons that are located within the anterior region of worms lead to progressive neurodegeneration characteristics during the aging of UA196 worms. This strain has been used to gain insights into the PD-associated mechanisms and to assess the neuroprotective effect of ligands against the intraneuronal αS aggregation[20],[72]–[75]. During the aging of worms, αS protein aggregates and degenerates the DA neurons as represented by the gradual loss of cell bodies as observed from day 3 (Fig. 7b, c, filled red arrow) to day 5 (Fig. 7d, e, empty red arrow), to day 15 (Fig. 7f, g, empty red arrow). Additionally, there was fragmentation and blebbing of neurites from day 3 (Fig. 7b, c, filled yellow arrow) to day 5 (Fig. 7d, e, empty yellow arrow), which has been observed by others as well[72]–[75]. The maximum number of healthy DA neurons in one UA196 worm is six on day 3 (no degeneration) and we used 10 worms/biological replicate, which makes a total of 60 healthy DA neurons/biological replicate. Therefore, for each study, the maximum number of healthy DA neurons in UA196 worms is 60 as an average for each biological replicate. […] None of the UA196 worms had all six healthy DA neurons on day 5 (Fig. 7k, -NS163) and there was a gradual decline in the total number of healthy DA neurons in UA196 worms (Supplementary Fig. 26a). […] The average number of intact DA neurons in UA196 worms treated with NS163 was 59.5, 58.7, and 57.3 on day five, 10, and 15, respectively (Fig. 7j, red line). Additionally, the total number of treated worms with all six intact DA neurons were 57, 52, and 47 on day 5, 10, and 15, respectively (Fig. 7k, Supplementary Fig. 26b).\nIn UA196 strain, human αS and GFP are expressed in DA neurons under control of a dopamine transporter-specific promoter [Pdat-1::α-syn+Pdat-1::GFP], which results in age-dependent neurodegeneration of six DA neurons.\nThis experiment was performed based on previously described protocols with slight modifications[24],[65],[88]. Briefly, the worm strains (NL5901 or UA196) were bleached at the same time and the eggs were incubated on PLATE 1. On day two, the worms were divided into two batches. One half of the worms were transferred (using M9 buffer) on PLATE 2 (without ligand) and the second half of the worms were transferred to PLATE 3 (with ligand). The concentration of the ligands varied from 10–50 µM as described in the main manuscript. The worms were incubated on PLATE 2 or PLATE 3 up to day 3 at 20 °C in an incubator with constant humidity. On day four, the ligand (10–50 µM, stock conc. = 10 mM in DMSO, DMSO from 0.1–0.5%, v/v) was added again to PLATE 3. For confocal imaging, at least 10 worms per condition (from PLATE 2 or PLATE 3) were transferred to a cover slide containing an anesthetic (40 mM sodium azide), and mounted on glass microscope slide containing 2% agarose pads using a reported protocol. The images of the worms were collected using an Olympus Fluoview FV3000 confocal/2-photon microscope (40 x Plan-Apo/1.3 NA objective with DIC capability) and processed using the OlympusViewer in ImageJ software. For NL5901 worms, the inclusions of the aggregated αS (GFP puncta in the muscle cells) were manually counted (10 worms per condition) for the five-day imaging period (day 5 to day 9) for PLATE 2 or PLATE 3. […]"}, "UA196 worms": {"system": "UA196 worms", "assay": "Confocal counting of healthy DA neurons, post-disease onset PD model of UA196 worms (treatment on day five)", "format": "in vivo, C. elegans", "method": "The UA196 worms were bleached, and the eggs were incubated on PLATE 1. On day two, the UA196 worms were transferred (using M9 buffer) on PLATE 2 (without ligand). On day five, 10 UA196 worms were used to determine the number of healthy DA worms using confocal imaging (as described earlier) prior to the treatment with ligands on day five. In tandem, ~50 worms were transferred to PLATE 3 (with ligand) using M9 buffer (10-20 µL) and the plate was incubated at 20 °C in the incubator. On days 10 and 15, 10 UA196 worms from PLATE 2 (without ligand) and PLATE 3 (with ligand) were used to determine the number of healthy DA worms using confocal imaging (as described earlier). For each condition, six biological replicates were performed and at least 10 technical replicates were used for each biological replicate. […] (n = 6 independent experiments and each n consisted of a minimum of ten technical replicates)."}, "[2]": {"details": "UA196+NS132, Day 3, 10 per trial"}, "[3]": {"details": "UA196+NS132, Day 5, 10 per trial"}, "[4]": {"details": "UA196+NS132, Day 10, 10 per trial"}, "[5]": {"details": "UA196+NS132, Day 15, 10 per trial"}, "[6]": {"details": "UA196 worms+NS132, Day 10, per trial (10 worms)"}, "[7]": {"details": "UA196 worms+NS132, Day 15, per trial (10 worms)"}}, "note": "Values joined by “and” are separate entries in the source; they are usually repeats but may differ in a detail not shown here. Equal entries are not always repeated."}
{"compound": "Cc1ccc(NC(=O)c2ccc(NC(=O)c3ccc([N+](=O)[O-])c(NCCc4c[nH]c5ccccc45)n3)c(NCC3CCCCC3)n2)c(OCC(=O)O)n1", "note": "[NS132]", "values": [{"measurement": "number of intact DA neurons in UA196 worms (max. 60)", "setting": "[1]; 50 µM ligand on day two and four, day 15 (untreated 13.5)", "result": 51}, {"measurement": "Total neurons, Average", "setting": "[1]; UA196+NS132, Day 3", "result": 59.5}, {"measurement": "Number of worms with 1 neurons", "setting": "[1]; [2]", "result": 0}, {"measurement": "Number of worms with 2 neurons", "setting": "[1]; [2]", "result": 0}, {"measurement": "Number of worms with 6 neurons", "setting": "[1]; [2]", "result": "9 and 10"}, {"measurement": "number of worms with 3 neurons", "setting": "[1]; [2]", "result": 0}, {"measurement": "number of worms with 4 neurons", "setting": "[1]; [2]", "result": 0}, {"measurement": "Total neurons, Average", "setting": "[1]; UA196+NS132, Day 5", "result": 55.8333}, {"measurement": "Number of worms with 1 neurons", "setting": "[1]; [3]", "result": 0}, {"measurement": "Number of worms with 2 neurons", "setting": "[1]; [3]", "result": 0}, {"measurement": "Number of worms with 5 neurons", "setting": "[1]; [3]", "result": "2 and 3 and 4"}, {"measurement": "Number of worms with 6 neurons", "setting": "[1]; [3]", "result": "7 and 8 and 6 and 5"}, {"measurement": "number of worms with 3 neurons", "setting": "[1]; [3]", "result": 0}, {"measurement": "Total neurons, Average", "setting": "[1]; UA196+NS132, Day 10", "result": 53.1667}, {"measurement": "Number of worms with 1 neurons", "setting": "[1]; [4]", "result": 0}, {"measurement": "Number of worms with 2 neurons", "setting": "[1]; [4]", "result": 0}, {"measurement": "Number of worms with 6 neurons", "setting": "[1]; [4]", "result": "6 and 4 and 5"}, {"measurement": "number of worms with 3 neurons", "setting": "[1]; [4]", "result": 0}, {"measurement": "Total neurons, Average", "setting": "[1]; UA196+NS132, Day 15", "result": 51}, {"measurement": "Number of worms with 1 neurons", "setting": "[1]; [5]", "result": 0}, {"measurement": "Number of worms with 2 neurons", "setting": "[1]; [5]", "result": 0}, {"measurement": "Number of worms with 5 neurons", "setting": "[1]; [5]", "result": "5 and 4 and 3"}, {"measurement": "Number of worms with 6 neurons", "setting": "[1]; [5]", "result": "3 and 4 and 5"}, {"measurement": "Total neurons, UA196 worms+Ligands", "setting": "[1]; UA196 worms+Ligands, one value per trial, day not given for ligand (controls: Day 3, Day 15)", "result": "53 and 48 and 50 and 54 and 49 and 52"}, {"measurement": "number of intact healthy DA neurons (max. 60)", "setting": "UA196 worms; 50 μM ligand on day five, day 15 (untreated 13.8 / 12.8)", "result": 32}, {"measurement": "healthy DA neurons, Average", "setting": "UA196 worms; UA196+ 50 uM NS132, day 5 (same value as UA196 control)", "result": 44.8333}, {"measurement": "healthy DA neurons, Average", "setting": "UA196 worms; UA196+ 50 uM NS132, day 10", "result": 34.8333}, {"measurement": "healthy DA neurons, Average", "setting": "UA196 worms; UA196+ 50 uM NS132, day 15", "result": 32}, {"measurement": "healthy DA neurons per trial", "setting": "UA196 worms; UA196 worms+Ligands, single trials 1-6, day not given", "result": "31 and 33"}, {"measurement": "Number of worms with 5 neurons", "setting": "UA196 worms; [6]", "result": "1 and 2"}, {"measurement": "Number of worms with 6 neurons", "setting": "UA196 worms; [6]", "result": 0}, {"measurement": "number of worms with 3 neurons", "setting": "UA196 worms; [6]", "result": "4 and 3"}, {"measurement": "number of worms with 4 neurons", "setting": "UA196 worms; [6]", "result": "3 and 4"}, {"measurement": "Number of worms with 2 neurons", "setting": "UA196 worms; [7]", "result": "1 and 2"}, {"measurement": "Number of worms with 5 neurons", "setting": "UA196 worms; [7]", "result": 0}, {"measurement": "Number of worms with 6 neurons", "setting": "UA196 worms; [7]", "result": 0}, {"measurement": "number of worms with 3 neurons", "setting": "UA196 worms; [7]", "result": "4 and 3 and 2"}, {"measurement": "number of worms with 4 neurons", "setting": "UA196 worms; [7]", "result": "4 and 5 and 6"}]}
